Assay results from the supplement of paper PMC9780213.

Legend:
Details in all cases: treatment time: 24 h
[1] = test system: U2OS-LMNB1-TUBA1B-ACTB; assay: cell count relative to DMSO control (panel C1, DRAQ5/ER stain) (fraction of control); higher = more cells (less toxicity)
Procedure: (§1)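 U2OS-derived cells in 384-well plates were treated for 24 h with a 7-point 2-fold dilution series (top dose 20 µM for most compounds; final max DMSO 1%), then fixed, stained in four marker panels and imaged on a Cellomics ArrayScan. Cell count per treatment (three replicate plates merged) is given as a fraction of DMSO control. Panel A used parental U2OS, panel B U2OS-mOrange2-Peroxisome, panel C1 U2OS-LMNB1-TUBA1B-ACTB (DRAQ5 nuclei).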

[2] = test system: U2OS-mOrange2-Peroxisome; assay: cell count relative to DMSO control (panel B, lysosome/peroxisome/lipid stain) (fraction of control); higher = more cells (less toxicity)
Procedure: as §1

[3] = test system: U2OS; assay: cell count relative to DMSO control (panel A, nuclei/RNA/PMG/mitochondria stain) (fraction of control); higher = more cells (less toxicity)
Procedure: as §1

Structure (SMILES)	cell count ([1]; 0.07812 µM)	cell count ([1]; 0.15625 µM)	cell count ([1]; 0.3125 µM)	cell count ([1]; 0.625 µM)	cell count ([1]; 1.25 µM)	cell count ([1]; 2.5 µM)	cell count ([1]; 5 µM)	cell count ([2]; 0.07812 µM)	cell count ([2]; 0.15625 µM)	cell count ([2]; 0.3125 µM)	cell count ([2]; 0.625 µM)	cell count ([2]; 1.25 µM)	cell count ([2]; 2.5 µM)	cell count ([2]; 5 µM)	cell count ([3]; 0.07812 µM)	cell count ([3]; 0.15625 µM)	cell count ([3]; 0.3125 µM)	cell count ([3]; 0.625 µM)	cell count ([3]; 1.25 µM)	cell count ([3]; 2.5 µM)	cell count ([3]; 5 µM)	cell count ([1]; 10 µM)	cell count ([1]; 20 µM)	cell count ([2]; 10 µM)	cell count ([2]; 20 µM)	cell count ([3]; 10 µM)	cell count ([3]; 20 µM)
COc1ccc(C[C@H](N)C(=O)N[C@H]2[C@@H](O)[C@H](n3cnc4c(N(C)C)ncnc43)O[C@@H]2CO)cc1 [puromycin]	1.1	0.997	1.11	1.13	0.957	1.02	1.02	1.01	0.924	1.07	1.09	1.11	1.29	1.52	1.06	1.05	1.03	1.06	0.995	1.03	0.957	–	–	–	–	–	–
OC(CS)C(O)CS (stereo unspecified) [DTT]	–	–	0.887	0.811	0.809	0.764	0.806	–	–	0.732	0.714	0.826	0.911	0.773	–	–	0.863	0.785	0.733	0.765	0.729	0.477	0.457	0.0574	0.0584	0.201	0.11
Cc1c2oc3c(C)ccc(C(=O)N[C@@H]4C(=O)N[C@H](C(C)C)C(=O)N5CCC[C@H]5C(=O)N(C)CC(=O)N(C)[C@@H](C(C)C)C(=O)O[C@@H]4C)c3nc-2c(C(=O)N[C@@H]2C(=O)N[C@H](C(C)C)C(=O)N3CCC[C@H]3C(=O)N(C)CC(=O)N(C)[C@@H](C(C)C)C(=O)O[C@@H]2C)c(N)c1=O [dactinomycin]	–	–	1.05	1.09	1	0.993	0.824	–	–	1.08	1.07	1.01	0.743	0.663	–	–	0.928	0.89	0.807	0.741	0.73	0.661	0.418	0.243	0.139	0.381	0.229
C[C@H]1O[C@@H](O[C@H]2[C@@H](O)C[C@H](O[C@H]3[C@@H](O)C[C@H](O[C@H]4CC[C@@]5(C)[C@H](CC[C@@H]6[C@@H]5CC[C@]5(C)[C@@H](C7=CC(=O)OC7)CC[C@]65O)C4)O[C@@H]3C)O[C@@H]2C)C[C@H](O)[C@@H]1O [digitoxin]	0.905	1.04	1.03	1.05	1.02	1.11	1.12	1.24	1.23	0.888	1.04	1.01	1.09	1.02	1.07	1.02	1.04	1.11	1.13	1.09	1.11	–	–	–	–	–	–
Cc1c(Cl)cccc1Nc1ccccc1C(=O)O [tolfenamic-acid]	–	–	1.01	1.1	1.11	1.07	0.998	–	–	0.753	0.959	0.883	0.953	0.933	–	–	0.992	1.06	1.03	1.1	1.04	1.12	1.03	1.01	1.22	1.03	0.963
N#C[C@H](O[C@@H]1O[C@H](CO[C@@H]2O[C@H](CO)[C@@H](O)[C@H](O)[C@H]2O)[C@@H](O)[C@H](O)[C@H]1O)c1ccccc1 [amygdalin]	–	–	1.05	1.15	0.992	1.01	0.959	–	–	0.877	0.848	0.731	0.983	0.805	–	–	1.09	1.06	1.07	1.02	0.921	1.1	0.956	0.948	0.953	1.05	0.974
